Measured values published in ChEMBL document CHEMBL4665629, “An optimised series of substituted N-phenylpyrrolamides as DNA gyrase B inhibitors” (Eur J Med Chem, 2019).
Values after ≈ are worked out from the molar mass of the structure shown.

Key:
[1] = molecular target: DNA gyrase (Escherichia coli) (UniProt P0AES6+P0AES4); experiment: Inhibition of Escherichia coli DNA gyrase assessed as residual activity at 1 uM using biotinylated oligonucleotide as substrate incubated for 30 mins in presence of ATP by fluorescence-based microplate reader assay relative to control; assay type: protein-complex assay
Escherichia coli [2] = experiment: Antibacterial activity against efflux pump d effect ive Escherichia coli JW5503 harbouring tolC mutant assessed as bacterial growth inhibition at 50 uM incubated for 24 hrs by CLSI protocol based broth microdilution assay relative to control; assay type: functional
Escherichia coli [3] = experiment: Antibacterial activity against outer membrane impaired Escherichia coli JD17464 harboring lpxC mutant assessed as bacterial growth inhibition at 50 uM incubated for 24 hrs by CLSI protocol based broth microdilution assay relative to control; assay type: functional
Pseudomonas aeruginosa = experiment: Antibacterial activity against Pseudomonas aeruginosa ATCC 27853 assessed as bacterial growth inhibition at 50 uM incubated for 24 hrs by CLSI protocol based broth microdilution assay relative to control; assay type: functional
Staphylococcus aureus = experiment: Antibacterial activity against Staphylococcus aureus ATCC 29213 assessed as bacterial growth inhibition at 50 uM incubated for 24 hrs by CLSI protocol based broth microdilution assay relative to control; assay type: functional
Klebsiella pneumoniae = experiment: Antibacterial activity against Klebsiella pneumoniae ATCC 700603 assessed as bacterial growth inhibition at 50 uM incubated for 24 hrs by CLSI protocol based broth microdilution assay relative to control; assay type: functional
Escherichia coli [4] = experiment: Antibacterial activity against Escherichia coli ATCC 25922 assessed as bacterial growth inhibition at 50 uM incubated for 24 hrs by CLSI protocol based broth microdilution assay relative to control; assay type: functional
Enterococcus faecium = experiment: Antibacterial activity against Enterococcus faecium ATCC 35667 assessed as bacterial growth inhibition at 50 uM incubated for 24 hrs by CLSI protocol based broth microdilution assay relative to control; assay type: functional
Enterococcus faecalis = experiment: Antibacterial activity against Enterococcus faecalis ATCC 29212 assessed as bacterial growth inhibition at 50 uM incubated for 24 hrs by CLSI protocol based broth microdilution assay relative to control; assay type: functional
Klebsiella aerogenes = experiment: Antibacterial activity against Enterobacter aerogenes ATCC 13408 assessed as bacterial growth inhibition at 50 uM incubated for 24 hrs by CLSI protocol based broth microdilution assay relative to control; assay type: functional
Acinetobacter baumannii = experiment: Antibacterial activity against Acinetobacter baumannii ATCC 19606 assessed as bacterial growth inhibition at 50 uM incubated for 24 hrs by CLSI protocol based broth microdilution assay relative to control; assay type: functional; settings: ATCC 19606 = CIP 70.34 = JCM 6841
DNA gyrase = DNA gyrase (Escherichia coli, UniProt P0AES4+P0AES6); experiment: Inhibition of Escherichia coli DNA gyrase using biotinylated oligonucleotide as substrate incubated for 30 mins in presence of ATP by fluorescence-based microplate reader assay; assay type: protein-complex assay
[5] = molecular target: Topoisomerase IV (Staphylococcus aureus) (UniProt P0C1U9+P0C1S7); experiment: Inhibition of Staphylococcus aureus DNA topoisomerase 4 assessed as residual activity at 1 uM using biotinylated oligonucleotide as substrate incubated for 30 mins in presence of ATP by fluorescence-based microplate reader assay relative to control; assay type: protein-complex assay
[6] = Inhibition of Escherichia coli DNA topoisomerase 4 assessed as residual activity at 1 uM using biotinylated oligonucleotide as substrate incubated for 30 mins in presence of ATP by fluorescence-based microplate reader assay relative to control
[7] = molecular target: DNA gyrase (Staphylococcus aureus) (UniProt P0A0K8+P20831); experiment: Inhibition of Staphylococcus aureus DNA gyrase assessed as residual activity at 1 uM using biotinylated oligonucleotide as substrate incubated for 30 mins in presence of ATP by fluorescence-based microplate reader assay relative to control; assay type: protein-complex assay
Escherichia coli [8] = experiment: Antibacterial activity against efflux pump d effect ive Escherichia coli JW5503 harbouring tolC mutant assessed as minimum inhibitory concentration required for >=90% inhibition of bacterial growth by CLSI protocol based broth microdilution assay; assay type: functional

Sequence of DNA gyrase (Staphylococcus aureus) (P0A0K8 2-644 limits assumed): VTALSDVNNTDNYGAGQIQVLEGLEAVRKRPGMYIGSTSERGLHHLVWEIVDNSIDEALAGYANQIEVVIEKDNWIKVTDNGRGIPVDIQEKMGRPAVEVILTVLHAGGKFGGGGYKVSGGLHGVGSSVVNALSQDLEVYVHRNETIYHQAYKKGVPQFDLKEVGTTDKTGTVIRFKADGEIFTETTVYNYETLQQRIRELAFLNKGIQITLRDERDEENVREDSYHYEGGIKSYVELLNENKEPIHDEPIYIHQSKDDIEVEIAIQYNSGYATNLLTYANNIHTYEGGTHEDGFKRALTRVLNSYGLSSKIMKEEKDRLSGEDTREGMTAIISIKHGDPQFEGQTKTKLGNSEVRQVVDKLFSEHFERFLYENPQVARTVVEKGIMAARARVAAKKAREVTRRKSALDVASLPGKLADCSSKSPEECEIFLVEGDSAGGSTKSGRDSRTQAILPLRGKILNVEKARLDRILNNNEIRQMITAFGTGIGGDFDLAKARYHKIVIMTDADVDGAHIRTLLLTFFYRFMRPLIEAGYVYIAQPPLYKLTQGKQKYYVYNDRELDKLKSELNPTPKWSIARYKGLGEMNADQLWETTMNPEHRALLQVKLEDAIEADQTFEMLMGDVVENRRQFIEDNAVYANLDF
Sequence of DNA gyrase (Staphylococcus aureus) (P20831 whole entry partner): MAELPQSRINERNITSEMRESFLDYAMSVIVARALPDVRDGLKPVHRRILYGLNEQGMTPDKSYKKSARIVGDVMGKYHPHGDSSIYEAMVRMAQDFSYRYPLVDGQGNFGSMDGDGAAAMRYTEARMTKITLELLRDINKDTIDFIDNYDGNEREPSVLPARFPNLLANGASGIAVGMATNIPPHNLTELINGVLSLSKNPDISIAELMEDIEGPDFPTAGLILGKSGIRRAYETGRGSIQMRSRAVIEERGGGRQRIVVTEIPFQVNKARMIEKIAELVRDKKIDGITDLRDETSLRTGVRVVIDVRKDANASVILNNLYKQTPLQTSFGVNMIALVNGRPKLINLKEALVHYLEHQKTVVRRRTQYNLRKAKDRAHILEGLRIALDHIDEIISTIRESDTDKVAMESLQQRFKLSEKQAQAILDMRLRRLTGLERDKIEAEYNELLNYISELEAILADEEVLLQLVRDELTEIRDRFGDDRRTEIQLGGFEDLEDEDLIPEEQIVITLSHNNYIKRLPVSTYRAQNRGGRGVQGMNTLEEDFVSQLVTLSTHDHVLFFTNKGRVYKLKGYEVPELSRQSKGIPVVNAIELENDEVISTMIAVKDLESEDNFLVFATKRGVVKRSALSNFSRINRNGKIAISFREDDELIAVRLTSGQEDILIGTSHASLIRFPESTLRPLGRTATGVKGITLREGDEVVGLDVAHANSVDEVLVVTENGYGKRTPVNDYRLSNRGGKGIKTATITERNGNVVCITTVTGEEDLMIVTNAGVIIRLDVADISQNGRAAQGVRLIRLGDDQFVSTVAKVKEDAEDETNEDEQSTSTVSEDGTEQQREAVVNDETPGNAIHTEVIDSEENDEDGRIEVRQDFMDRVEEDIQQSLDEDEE

SMILES | Activity [1] [%] | inhibition at 50 µM (Escherichia coli [2]) [%] | inhibition at 50 µM (Escherichia coli [3]) [%] | inhibition at 50 µM (Pseudomonas aeruginosa) [%] | inhibition at 50 µM (Staphylococcus aureus) [%] | inhibition at 50 µM (Klebsiella pneumoniae) [%] | inhibition at 50 µM (Escherichia coli [4]) [%] | inhibition at 50 µM (Enterococcus faecium) [%] | inhibition at 50 µM (Enterococcus faecalis) [%] | inhibition at 50 µM (Klebsiella aerogenes) [%] | inhibition at 50 µM (Acinetobacter baumannii) [%] | IC50 (DNA gyrase) [nM] | Activity [5] [%] | Activity [6] [%] | Activity [7] [%] | MIC (Escherichia coli [8]) [µM]
CCOC(=O)c1cc2cc(NC(=O)c3[nH]c(C)c(Cl)c3Cl)ccc2[nH]1 | 100 |  |  |  |  |  |  |  |  |  |  |  |  |  |  | 
N#CCNC(=O)c1ccc(NC(=O)c2cc(Br)c(Br)[nH]2)cc1 |  | -9 | -5 | 11 | -5 | 5 | 2 | 2 | 7 | 7 | 2 | 960 |  |  |  | 
Cc1[nH]c(C(=O)Nc2ccc(C(=O)NCC(=O)O)cc2O[C@H]2CCN(C(=O)OC(C)(C)C)C2)c(Cl)c1Cl |  | 2 | -2 | 14 | -1 | 9 | 5 | 9 |  | 6 | 1 | 92 |  |  |  | 
Cc1[nH]c(C(=O)Nc2ccc(C(=O)NS(C)(=O)=O)cc2)c(Cl)c1Cl |  | 73 | 4 | 3 | 5 | -2 | 15 | -3 | 16 | -8 | 6 | 160 | 81 | 98 | 55 | 
COC(=O)CNC(=O)c1ccc(NC(=O)c2cc(Br)c(Br)[nH]2)c(OC2CCN(C(=O)OC(C)(C)C)CC2)c1 | 100 | -4 | 1 | -1 | -17 | -12 | -8 | -75 |  | -9 | -4 |  |  |  |  | 
Cc1[nH]c(C(=O)Nc2ccc3[nH]c(C(=O)O)cc3c2)c(Cl)c1Cl |  | 99 | 2 | -2 | 6 | -2 | 2 | 20 | 54 | 6 | 3 | 98 |  |  |  | 12.5 (≈ 4.4 µg/mL)
O=C(O)CNC(=O)c1ccc(NC(=O)c2cc(Br)c(Br)[nH]2)c(OC2CCNCC2)c1 |  | -17 | 5 | 2 | 3 | 4 | -9 | 2 |  | 3 | 1 | 20 | 100 | 100 | 67 | 
CCOC(=O)C(NC(=O)c1ccc(NC(=O)c2[nH]c(C)c(Cl)c2Cl)cc1)C(=O)OCC |  | 8 | 8 | -6 | 32 | 18 | 13 | 11 | 14 | 11 | 9 | 7700 |  |  |  | 
COC(=O)CNC(=O)c1ccc(NC(=O)c2[nH]c(C)c(Cl)c2Cl)c(OC2CCN(C(=O)OC(C)(C)C)CC2)c1 | 100 | 7 | 31 | -18 | 8 | -2 | 26 | -19 |  | 5 | 15 |  |  |  |  | 
Cc1[nH]c(C(=O)Nc2ccc(C(=O)N[C@H](C)C(=O)O)cc2OC2CCN(C(=O)OC(C)(C)C)CC2)c(Cl)c1Cl |  | -8 | 10 | -10 | -22 | -13 | -7 | 59 |  | -5 | 15 | 71 | 79 | 99 | 68 | 
